Reference: patent US10765114B2, “4-amino-6-(pyridyl and 2-substitutedphenyl)-picolinates and 6-amino-2-(pyridyl and 2-substitutedphenyl)-pyrimidine-4-carboxylates and their use as herbicides” (Dow AgroSciences LLC, priority 2013, dated 2020)

Experiments:
[1] = test system: AMARE: redroot pigwseed (Amaranthus retroflexus); experiment: Post-Emergent Test I; format: in vivo; settings: postemergence
Method: (§1) Post-Emergent Test I Seeds test species were obtained from commercial suppliers and planted into a 13 centimeter (cm) diameter-round pot containing soil-less media mix (Metro-Mix 360®, Sun Gro Horticulture). Postemergence treatments were planted 8-12 days prior to application and cultured in a greenhouse equipped with supplemental light sources to provide a 16 hour (h) photoperiod at 24-29° C. All pots were surface irrigated.
(§2) A weighted amount, determined by the highest rate to be tested, of each compound was dissolved in 1.3 mL acetone-dimethyl sulfoxide (DMSO; 97:3, volume per volume (v/v)) and diluted with 4.1 mL water-isopropanol-crop oil concentrate (78:20:2, v/v/v) containing 0.02% Triton X-155 to obtain concentrated stock solutions. Additional application rates were obtained by serial dilution of the high rate solution into a solution containing appropriate volume of 97:3 v/v mixture of acetone and DMSO and appropriate volume of an aqueous mixture of water, isopropyl alcohol, crop oil concentrate (78:20:2, v/v/v) containing 0.02% Triton X-155.
(§3) Formulated compounds were applied using a DeVilbiss® compressed air sprayer at 2-4 pounds per square inch (psi). Following treatment, pots were returned to the greenhouse for the duration of the experiment. All pots were sub-irrigated as need to provide optimum growing conditions. All pots were fertilized one time per week by subirrigating with Peters Peat-Lite Special® fertilizer (20-10-20).
(§4) All evaluations were made visually on a scale of 0 to 100 where 0 represents no activity and 100 represents complete plant death and presented as indicated in Table A. Visual assessments of plant injury were made based on growth reduction, discoloration, leaf deformity and necrosis

[2] = test system: AVEFA: wild oats (Avena fatua); experiment: Post-Emergent Test I; format: in vivo; settings: postemergence
Method: as §1, §2, §3, §4

[3] = test system: ECHSS (ECHCG: barnyardgrass (Echinochloa crus-galli)); experiment: Post-Emergent Test I; format: in vivo; settings: postemergence
Method: as §1, §2, §3, §4

[4] = test system: HELAN: sunflower (Helianthus annuus); experiment: Post-Emergent Test I; format: in vivo; settings: postemergence
Method: as §1, §2, §3, §4

[5] = test system: IPOSS (IPOHE: ivyleaf morningglory (Ipomoea hederecea)); experiment: Post-Emergent Test I; format: in vivo; settings: postemergence
Method: as §1, §2, §3, §4

[6] = test system: SETFA: giant foxtail (Setaria faberi); experiment: Post-Emergent Test I; format: in vivo; settings: postemergence
Method: as §1, §2, §3, §4

BROTE (downy brome) = experiment: Post-Emergent Test III (Wheat and Barley); format: in vivo, Bromus tectorum; settings: for Visual Growth Reduction (%) 21 Days After Application, BROTE: postemergence; for GR50, BROTE: effective dose for growth reduction of 50 percent; for GR50, BROTE / GR80, BROTE / GR90, BROTE: probit analysis; for GR80, BROTE: effective dose for growth reduction of 80 percent; for GR90, BROTE: effective dose for growth reduction of 90 percent
Method: (§5) Seeds of the desired test plant species were planted in Sun Gro MetroMix® 306 planting mixture, which typically has a pH of 6.0 to 6.8 and an organic matter content of about 30 percent, in plastic pots with a surface area of 103.2 square centimeters (cm^2). When required to ensure good germination and healthy plants, a fungicide treatment and/or other chemical or physical treatment was applied. The plants were grown for 7-36 days in a greenhouse with an approximate 14 h photoperiod which was maintained at about 18° C. during the day and 17° C. during the night. Nutrients and water were added on a regular basis and supplemental lighting was provided with overhead metal halide 1000-Watt lamps as necessary. The plants were employed for testing when they reached the second or third true leaf stage.
(§6) A weighed amount, determined by the highest rate to be tested, of each test compound was placed in a 25 mL glass vial and was dissolved in 4 mL of a 97:3 v/v mixture of acetone and DMSO to obtain concentrated stock solutions. […] The concentrated stock solutions obtained were diluted with 20 mL of an aqueous mixture containing acetone, water, isopropyl alcohol, DMSO, Agri-Dex crop oil concentrate, and X-77 surfactant in a 48:39:10:1.5:1.5:0.02 v/v ratio to obtain spray solutions containing the highest application rates. Additional application rates were obtained by serial dilution of 12 mL of the high rate solution into a solution containing 2 mL of 97:3 v/v mixture of acetone and DMSO and 10 mL of an aqueous mixture containing acetone, water, isopropyl alcohol, DMSO, Agri-Dex crop oil concentrate, and X-77 surfactant in a 48:39:10:1.5:1.5:0.02 v/v ratio to obtain ½×, ¼×, ⅛× and 1/16× rates of the high rate. Compound requirements are based upon a 12 mL application volume at a rate of 187 liters per hectare (L/ha). Formulated compounds were applied to the plant material with an overhead Mandel track sprayer equipped with 8002E nozzles calibrated to deliver 187 L/ha over an application area of 0.503 square meters at a spray height of 18 inches (43 cm) above the average plant canopy height. Control plants were sprayed in the same manner with the solvent blank.
(§7) The treated plants and control plants were placed in a greenhouse as described above and watered by subirrigation to prevent wash-off of the test compounds. After 21 dAYS, the condition of the test plants as compared with that of the untreated plants was determined visually and scored on a scale of 0 to 100 percent where 0 corresponds to no injury and 100 corresponds to complete kill and presented as indicated in Table A.
(§8) By applying the well-accepted probit analysis as described by J. Berkson in Journal of the American Statistical Society, 48, 565 (1953) and by D. Finney in “Probit Analysis” Cambridge University Press (1952), herbicidal injury of a specific compound at various rates can be used to calculate GR10, GR20, GR50, GR80 and GR90 values, which are defined as growth reduction factors that correspond to the effective dose of herbicide required to provide plant growth reduction (GR) of 10 percent, 20 percent, 50 percent, 80 percent and 90 percent, respectively. Probit analysis was applied to data collected from multiple dose rates of individual compounds utilizing the procedures explained in the following examples. The analysis of those dose rates is captured in the following tables.

[7] = test system: PHAMI (littleseed canarygrass); experiment: Post-Emergent Test III (Wheat and Barley); format: in vivo, Phalaris minor; settings: for Visual Growth Reduction (%) 21 Days After Application, PHAMI: postemergence; for GR50, PHAMI: effective dose for growth reduction of 50 percent; for GR50, PHAMI / GR80, PHAMI / GR90, PHAMI: probit analysis; for GR80, PHAMI: effective dose for growth reduction of 80 percent; for GR90, PHAMI: effective dose for growth reduction of 90 percent
Method: as §5, §6, §7, §8

COC(=O)c1nc(-c2ccc(C(F)(F)F)nc2)cc(N)c1Cl [Compound 4]
Visual Growth Reduction (%) 14 Days After Application, AMARE ([1]; 4 kg ai/ha): A (95-100) | Visual Growth Reduction (%) 14 Days After Application, AVEFA ([2]; 4 kg ai/ha): B (85-94) | Visual Growth Reduction (%) 14 Days After Application, ECHSS ([3]; 4 kg ai/ha): C (75-84) | Visual Growth Reduction (%) 14 Days After Application, HELAN ([4]; 4 kg ai/ha): A (95-100) | Visual Growth Reduction (%) 14 Days After Application, IPOSS ([5]; 4 kg ai/ha): A (95-100) | Visual Growth Reduction (%) After Application, SETFA ([6]; 4 kg ai/ha): A (95-100)

COC(=O)c1nc(-c2ccc(Cl)nc2F)cc(N)c1Cl [Compound 17, methyl 4-amino-5,6′-dichloro-2′-fluoro-[2,3′-bipyridine]-6-carboxylate]
Visual Growth Reduction (%) 14 Days After Application, AMARE ([1]; 3.8 kg ai/ha): C (75-84) | Visual Growth Reduction (%) 14 Days After Application, AVEFA ([2]; 3.8 kg ai/ha): F (30-44) | Visual Growth Reduction (%) 14 Days After Application, ECHSS ([3]; 3.8 kg ai/ha): F (30-44) | Visual Growth Reduction (%) 14 Days After Application, HELAN ([4]; 3.8 kg ai/ha): A (95-100) | Visual Growth Reduction (%) 14 Days After Application, IPOSS ([5]; 3.8 kg ai/ha): A (95-100) | Visual Growth Reduction (%) After Application, SETFA ([6]; 3.8 kg ai/ha): B (85-94)

Nc1c(F)c(-c2ccc(C(F)(F)F)nc2)nc(C(=O)O)c1Cl [Compound 46, 4-amino-5-chloro-3-fluoro-6′-(trifluoromethyl)-[2,3′-bipyridine]-6-carboxylic acid]
Visual Growth Reduction (%) 21 Days After Application, BROTE (BROTE (downy brome); 35 g ai/ha): E (45-59) | Visual Growth Reduction (%) 21 Days After Application, BROTE (BROTE (downy brome); 70 g ai/ha): D (60-74) | Visual Growth Reduction (%) 21 Days After Application, BROTE (BROTE (downy brome); 140 g ai/ha): B (85-94) | GR50, BROTE (BROTE (downy brome)): 42 g ai/ha | GR80, BROTE (BROTE (downy brome)): 93 g ai/ha | GR90, BROTE (BROTE (downy brome)): 140 g ai/ha | Visual Growth Reduction (%) 21 Days After Application, PHAMI ([7]; 35 g ai/ha): B (85-94) | Visual Growth Reduction (%) 21 Days After Application, PHAMI ([7]; 70 g ai/ha): B (85-94) | Visual Growth Reduction (%) 21 Days After Application, PHAMI ([7]; 140 g ai/ha): B (85-94) | GR50, PHAMI [7]: 15 g ai/ha | GR80, PHAMI [7]: 24 g ai/ha | GR90, PHAMI [7]: 31 g ai/ha

Cc1c(-c2cc(N)c(Cl)c(C(=O)O)n2)ccc(Cl)c1F [Compound 52]
Visual Growth Reduction (%) 21 Days After Application, BROTE (BROTE (downy brome); 35 g ai/ha): G (0-29) | Visual Growth Reduction (%) 21 Days After Application, BROTE (BROTE (downy brome); 70 g ai/ha): F (30-44) | Visual Growth Reduction (%) 21 Days After Application, BROTE (BROTE (downy brome); 140 g ai/ha): D (60-74) | GR50, BROTE (BROTE (downy brome)): 98 g ai/ha | GR80, BROTE (BROTE (downy brome)): >140 g ai/ha | GR90, BROTE (BROTE (downy brome)): >140 g ai/ha | Visual Growth Reduction (%) 21 Days After Application, PHAMI ([7]; 35 g ai/ha): C (75-84) | Visual Growth Reduction (%) 21 Days After Application, PHAMI ([7]; 70 g ai/ha): B (85-94) | Visual Growth Reduction (%) 21 Days After Application, PHAMI ([7]; 140 g ai/ha): B (85-94) | GR50, PHAMI [7]: 18 g ai/ha | GR80, PHAMI [7]: 38 g ai/ha | GR90, PHAMI [7]: 56 g ai/ha

COC(=O)c1nc(-c2ccc(Cl)c(F)c2C)cc(N)c1Cl [Compound 73]
Visual Growth Reduction (%) 21 Days After Application, BROTE (BROTE (downy brome); 35 g ai/ha): E (45-59) | Visual Growth Reduction (%) 21 Days After Application, BROTE (BROTE (downy brome); 70 g ai/ha): D (60-74) | Visual Growth Reduction (%) 21 Days After Application, BROTE (BROTE (downy brome); 140 g ai/ha): D (60-74) | GR50, BROTE (BROTE (downy brome)): 59 g ai/ha | GR80, BROTE (BROTE (downy brome)): >140 g ai/ha | GR90, BROTE (BROTE (downy brome)): >140 g ai/ha | Visual Growth Reduction (%) 21 Days After Application, PHAMI ([7]; 35 g ai/ha): D (60-74) | Visual Growth Reduction (%) 21 Days After Application, PHAMI ([7]; 70 g ai/ha): D (60-74) | Visual Growth Reduction (%) 21 Days After Application, PHAMI ([7]; 140 g ai/ha): C (75-84) | GR50, PHAMI [7]: 40 g ai/ha | GR80, PHAMI [7]: 107 g ai/ha | GR90, PHAMI [7]: >140 g ai/ha
